From article PMC10716780, “The multistep oxidation of cholesterol to pregnenolone by human cytochrome P450 11A1 is highly processive” (The Journal of Biological Chemistry, 2023) come the findings set out here.

The assay deals with T1, human P450 11A1 (Homo sapiens, UniProt P05108).
T1 sequence (P05108 41-521 limits assumed): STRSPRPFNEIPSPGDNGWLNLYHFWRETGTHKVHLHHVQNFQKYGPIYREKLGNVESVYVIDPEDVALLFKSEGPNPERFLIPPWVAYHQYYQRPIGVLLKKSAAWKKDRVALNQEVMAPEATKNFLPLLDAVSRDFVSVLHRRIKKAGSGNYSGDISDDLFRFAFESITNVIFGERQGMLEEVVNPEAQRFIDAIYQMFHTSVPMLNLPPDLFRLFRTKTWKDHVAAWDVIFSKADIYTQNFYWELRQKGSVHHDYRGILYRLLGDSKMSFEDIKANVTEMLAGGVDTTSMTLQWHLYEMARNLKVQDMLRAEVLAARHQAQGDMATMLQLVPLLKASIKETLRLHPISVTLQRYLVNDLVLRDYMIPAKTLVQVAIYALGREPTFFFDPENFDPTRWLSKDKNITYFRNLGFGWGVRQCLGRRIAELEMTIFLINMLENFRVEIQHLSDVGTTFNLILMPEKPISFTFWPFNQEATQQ
T1 sequence (P00257 59-186 partner): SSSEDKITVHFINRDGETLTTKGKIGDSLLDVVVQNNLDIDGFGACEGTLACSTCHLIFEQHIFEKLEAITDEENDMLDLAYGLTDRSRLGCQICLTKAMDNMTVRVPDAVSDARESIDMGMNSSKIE
Nature of the assay: Kinetic modeling of single-turnover reactions (KinTek Explorer). The format is biochemical. Further details: M A S T R S P R P F N E I P S P G D N; Met-Ala (N-terminal start residues in place of the transit peptide and Ile40) (N); made in house; host or cells: E. coli (P450 11A1 in C41(DE3); Adx and AdR in E. coli). As to conditions: for k^+ of oxidation step of enzyme-bound sterol, high Adx: high Adx (50 μM); for k^+ of oxidation step of enzyme-bound sterol, high Adx / k^+ of oxidation step of enzyme-bound sterol, low Adx: adjusted to fit single-turnover data; for k^+ of oxidation step of enzyme-bound sterol, low Adx: low Adx (5 μM). The source says: A minimal kinetic model was assembled to fit the data of the single-turnover reactions (Fig. 9) using the parameters listed in Table 2 (Fig. 14). […] Each oxidation reaction is irreversible, and thus the rates of the reverse reactions (k-2, k-4, k-6) were set to zero. The single-turnover data (Fig. 9) were fit to a single exponential to calculate the first-order decay of cholesterol, that is, the rate of cholesterol 22R-hydroxylation (k2). […] The rate of 20R-hydroxylation of 22R-OH cholesterol (k4) was estimated similarly to k2 from exponential fitting of first-order formation of the 20R,22R-(OH)2 sterol from the 22R-OH sterol.
Data were imported into KinTek Explorer software (v. 11.01, KinTek, https://kintekcorp.com/software) ([63]) as txt files and processed using an Apple computer (operating system 11.6.2). The indicated kinetic model (Table 2) was used with the enzyme and substrate concentrations, first estimating the rate of disappearance of the substrate cholesterol.

The mark [1] stands for this setting: read-out: k^+ for ligand binding to P450 11A1 (kon) used in model, set to the value determined for P450 11A1 and ketoconazole.
The mark [2] stands for this setting: read-out: k^− for ligand dissociation (koff) used in model, values measured by stopped-flow spectroscopy.

The structures appear in SMILES notation. Read-outs that look alike come from different tables or passages of the source.

As to `CC(C)CC[C@@H](O)[C@](C)(O)[C@H]1CC[C@H]2[C@@H]3CC=C4C[C@@H](O)CC[C@]4(C)[C@H]3CC[C@]12C` [20R,22R-(OH)2 Chol, (20R,22R)-Cholest-5-ene-3β,20,22-triol], the “k^+ of oxidation step of enzyme-bound sterol, high Adx” value turned out to be 1.7 s⁻¹ and the “k^+ of oxidation step of enzyme-bound sterol, low Adx” value came to 0.55 s⁻¹. For the same molecule, the kon under setting [1] is 500000 M⁻¹ s⁻¹. Moreover, the koff (read-out: k^− for ligand dissociation (koff) used in model) is 0.39 s⁻¹. Further, the “k^+ for ligand binding to P450 11A1 (kon) used in model” value (shortened to “k^+ for ligand binding to P450 11A1”) (set to the value determined for P450 11A1 and ketoconazole, listed as Q) was 530000 M⁻¹ s⁻¹.
As to `CC(=O)[C@H]1CC[C@H]2[C@@H]3CC=C4C[C@@H](O)CC[C@]4(C)[C@H]3CC[C@]12C` [Pregnenolone], the “k^+ for ligand binding to P450 11A1” value (set to the value determined for P450 11A1 and ketoconazole, listed as R) amounted to 530000 M⁻¹ s⁻¹. For the same molecule, under “set to the value determined for P450 11A1 and ketoconazole, read-out: k^+ for ligand binding to P450 11A1 (kon) used in model”, the kon stood at 500000 M⁻¹ s⁻¹. For the same molecule, for the setting “values measured by stopped-flow spectroscopy, read-out: k^− for ligand dissociation (koff) used in model”, the koff amounted to 0.55 s⁻¹.
Consider `CC(C)CC[C@@H](O)[C@@H](C)[C@H]1CC[C@H]2[C@@H]3CC=C4C[C@@H](O)CC[C@]4(C)[C@H]3CC[C@]12C` [22R-OH Chol, 22R-hydroxycholesterol], for which the “k^+ of oxidation step of enzyme-bound sterol, high Adx” value amounted to 1.5 s⁻¹ and the “k^+ of oxidation step of enzyme-bound sterol, low Adx” value was determined as 0.4 s⁻¹. Under setting [1], the kon turned out to be 500000 M⁻¹ s⁻¹. The dissociation rate constant (koff) under setting [2] was found to be 0.04 s⁻¹. In addition, the “k^+ for ligand binding to P450 11A1” value (set to the value determined for P450 11A1 and ketoconazole, listed as P) was found to be 530000 M⁻¹ s⁻¹. For the same molecule, the “k^− for ligand dissociation (koff) used in model” value (values measured by stopped-flow spectroscopy, listed as P) is 0.044 s⁻¹.
In the case of `CC(C)CCC[C@@H](C)[C@H]1CC[C@H]2[C@@H]3CC=C4C[C@@H](O)CC[C@]4(C)[C@H]3CC[C@]12C` [Cholesterol], the “k^+ of oxidation step of enzyme-bound sterol, high Adx” value was 0.12 s⁻¹ and the “k^+ of oxidation step of enzyme-bound sterol, low Adx” value turned out to be 0.04 s⁻¹. Also, the kon under setting [1] turned out to be 500000 M⁻¹ s⁻¹. Further, the koff under setting [2] is 0.24 s⁻¹. Moreover, the “k^+ for ligand binding to P450 11A1” value (set to the value determined for P450 11A1 and ketoconazole, listed as S) amounted to 530000 M⁻¹ s⁻¹.

Broadly, the kon is a measure of how fast the partners come together. Broadly, the koff is the first-order rate constant of dissociation.
